According to patent publication US11999727B2 (Tango Therapeutics, Inc., priority 2020, dated 2024):

Legend:
PRMT5 [1] = molecular target: T1, PRMT5 (Homo sapiens, UniProt O14744); test: PRMT5 biochemical IC50 assay with SAM as cofactor; settings: PRMT5, SAM as cofactor; read-out: SAM IC50
T1 construct: purchased Viva (custom protein)

PRMT5 [2] = molecular target: T1, PRMT5; test: PRMT5 biochemical IC50 assay with no cofactor; settings: PRMT5, no cofactor; read-out: No Cofactor/rel IC50
Description: Table 1 indicates IC50 values (μM) against PRMT5 for exemplary compounds in the presence of SAM as cofactor, with no cofactor, and with MTA as cofactor, respectively (columns 4-6). […] Ki values can be calculated from the IC50 values as described in the Examples section. As detailed in the Examples section, for the assay performed in the presence of SAM, IC50=Ki×1.5 (Ki=IC50/1.5).

PRMT5 [3] = molecular target: T1, PRMT5; test: PRMT5 biochemical IC50 assay with MTA as cofactor; settings: PRMT5, MTA as cofactor; read-out: MTA IC50
[4] = test system: HAP1 MTAP-intact cell line; test: SDMA in-cell western assay, HAP1 MTAP-intact; assay type: cell-based; settings: Homo sapiens, HAP1, SDMA in-cell western, HAP1 MTAP-intact; read-out: MTAP HAP1 intact IC50
How it was run: (§1)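 MTAP-null vs endogenous-MTAP HAP1 isogenic cells; in-cell western SDMA readout; IC50 per line.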

[5] = test system: HAP1 MTAP-deleted cell line; test: SDMA in-cell western assay, HAP1 MTAP-deleted; assay type: cell-based; settings: for IC50: Homo sapiens, HAP1, SDMA in-cell western, HAP1 MTAP-deleted, read-out: HAP1 MTAP deleted IC50; for MTAP intact/deleted ratio: IC50 ratio HAP1 MTAP-intact / HAP1 MTAP-deleted, SDMA in-cell western
How it was run: as §1

[6] = test system: HAP1 MTAP-deleted cell line; test: Viability assay, MTAP-deleted cell line; assay type: cell-based; settings: Homo sapiens, HAP1, viability assay, MTAP-deleted cell line; read-out: HAP1 MTAP deleted viability
Description: Table 1 additionally indicates IC50 values in a viability assay for the MTAP-deleted cell line (column 10), indicating the effect of treatment with compound on cell survival.

T1 sequence (O14744 whole entry): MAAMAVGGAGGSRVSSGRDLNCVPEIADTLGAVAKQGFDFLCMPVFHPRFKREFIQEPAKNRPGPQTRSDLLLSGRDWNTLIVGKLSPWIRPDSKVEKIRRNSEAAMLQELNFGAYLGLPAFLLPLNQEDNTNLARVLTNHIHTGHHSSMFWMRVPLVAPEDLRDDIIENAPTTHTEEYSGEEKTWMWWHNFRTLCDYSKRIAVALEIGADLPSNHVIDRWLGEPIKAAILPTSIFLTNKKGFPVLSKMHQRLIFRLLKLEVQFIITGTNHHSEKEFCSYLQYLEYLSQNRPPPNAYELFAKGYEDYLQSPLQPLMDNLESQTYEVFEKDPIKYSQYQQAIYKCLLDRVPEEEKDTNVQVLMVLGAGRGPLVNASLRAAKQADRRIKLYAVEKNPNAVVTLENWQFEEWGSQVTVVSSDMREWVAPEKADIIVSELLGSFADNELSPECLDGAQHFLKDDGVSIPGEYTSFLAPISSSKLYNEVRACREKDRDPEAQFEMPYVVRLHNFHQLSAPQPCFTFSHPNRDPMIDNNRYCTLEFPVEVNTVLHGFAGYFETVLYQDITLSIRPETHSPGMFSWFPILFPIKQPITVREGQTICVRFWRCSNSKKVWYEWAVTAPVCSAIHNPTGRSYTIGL
T1 sequence (Q9BQA1 whole entry partner): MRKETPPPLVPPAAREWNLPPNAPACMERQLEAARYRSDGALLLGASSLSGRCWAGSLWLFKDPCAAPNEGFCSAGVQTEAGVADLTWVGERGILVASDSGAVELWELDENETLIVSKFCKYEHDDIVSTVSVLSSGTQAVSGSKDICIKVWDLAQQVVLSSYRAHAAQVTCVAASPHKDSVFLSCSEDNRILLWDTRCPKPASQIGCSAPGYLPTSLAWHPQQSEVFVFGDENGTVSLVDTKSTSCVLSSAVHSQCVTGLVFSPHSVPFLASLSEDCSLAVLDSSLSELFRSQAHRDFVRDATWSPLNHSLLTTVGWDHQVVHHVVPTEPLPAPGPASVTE

| SMILES | IC50 (PRMT5 [1]) [µM] | IC50 (PRMT5 [2]) [µM] | IC50 (PRMT5 [3]) [µM] | IC50 [4] [µM] | IC50 [5] [µM] | MTAP intact/deleted ratio [5] | IC50 [6] [µM] |
| --- | --- | --- | --- | --- | --- | --- | --- |
| C[C@@H]1CC[C@@H](c2ccc(NCC(=O)N(C)C)cc2)N(C(=O)C(=O)Nc2cncc(C(N)=O)c2)C1 (single isomer, unassigned) [Compound 437] | 0.05 to 0.5 | 0.05 to 0.5 | < 0.05 | > 1 | < 0.1 | A (an IC50 ratio greater than or equal to 10 fold) | 1 to 10 |
| Cc1c(NC(=O)C(=O)N2[C@H](C)CCC[C@@H]2c2ccccc2)cnc(N)c1C (single isomer, unassigned) [Compound 439] | 0.05 to 0.5 | 0.05 to 0.5 | < 0.05 | > 1 | < 0.1 | A (an IC50 ratio greater than or equal to 10 fold) | 1 to 10 |
| CNc1cccc([C@@H]2CC[C@@H](C)CN2C(=O)C(=O)Nc2cnc(N)c(C)c2)c1 (single isomer, unassigned) [Compound 449] | 0.05 to 0.5 | 0.05 to 0.5 | < 0.05 | 0.1 to 1 | < 0.1 | A (an IC50 ratio greater than or equal to 10 fold) | < 1 |
| CC(=O)Nc1ccc([C@@H]2CC[C@@H](C)CN2C(=O)C(=O)Nc2cncc(C(N)=O)c2)cc1 (single isomer, unassigned) [Compound 451] | 0.05 to 0.5 | 0.05 to 0.5 | < 0.05 | > 1 | < 0.1 | A (an IC50 ratio greater than or equal to 10 fold) | 1 to 10 |
| C[C@@H]1CC[C@@H](c2ccc(NCC(F)(F)F)cc2)N(C(=O)C(=O)Nc2cncc(C(N)=O)c2)C1 (single isomer, unassigned) [Compound 455] | 0.05 to 0.5 | 0.05 to 0.5 | < 0.05 | > 1 | 0.1 to 1 | A (an IC50 ratio greater than or equal to 10 fold) | 1 to 10 |
| C[C@H]1CN(C(=O)C(=O)Nc2cncc(C(N)=O)c2)[C@H](c2ccccc2)CC1(F)F (single isomer, unassigned) [Compound 457] | 0.05 to 0.5 | 0.05 to 0.5 | < 0.05 | > 1 | < 0.1 | A (an IC50 ratio greater than or equal to 10 fold) | < 1 |
| Cc1cc(NC(=O)C(=O)N2C[C@H](C)CC[C@H]2c2ccc(N)cc2)cnc1N (single isomer, unassigned) [Compound 461] | 0.05 to 0.5 | < 0.05 | < 0.05 | 0.1 to 1 | < 0.1 | B (an IC50 ratio greater than or equal to 3 fold but lower than 10 fold) | < 1 |
| C[C@H]1CC[C@H](c2ccc(NS(C)(=O)=O)cc2)N(C(=O)C(=O)Nc2cncc(C(N)=O)c2)C1 (single isomer, unassigned) [Compound 462] | 0.05 to 0.5 | 0.05 to 0.5 | < 0.05 | > 1 | 0.1 to 1 | A (an IC50 ratio greater than or equal to 10 fold) | 1 to 10 |
| C[C@H]1CC[C@H](c2csc3ccccc23)N(C(=O)C(=O)Nc2cncc(C(N)=O)c2)C1 (single isomer, unassigned) [Compound 466] | > 0.5 | > 0.5 | > 0.5 | > 1 | > 1 | C (an IC50 ratio of less than 3 fold) | > 10 |
| C[C@@H]1CC[C@@H](c2ccc(NS(C)(=O)=O)cc2)N(C(=O)C(=O)Nc2cncc(C(N)=O)c2)C1 (single isomer, unassigned) [Compound 469] | > 0.5 | > 0.5 | > 0.5 | > 1 | > 1 | C (an IC50 ratio of less than 3 fold) | > 10 |

More lines, main results first:

| IC50 (PRMT5 [1]) [µM] | IC50 (PRMT5 [2]) [µM] | IC50 (PRMT5 [3]) [µM] | IC50 [4] [µM] | IC50 [5] [µM] | SMILES | MTAP intact/deleted ratio [5] | IC50 [6] [µM] |
| --- | --- | --- | --- | --- | --- | --- | --- |
| 0.05 to 0.5 | 0.05 to 0.5 | < 0.05 | > 1 | < 0.1 | C[C@H]1CC[C@H](c2cccc(Cl)c2)N(C(=O)C(=O)Nc2cncc(C(N)=O)c2)C1 (single isomer, unassigned) [Compound 440] | A (an IC50 ratio greater than or equal to 10 fold) | 1 to 10 |
| 0.05 to 0.5 | < 0.05 | < 0.05 | > 1 | < 0.1 | CNc1ccc([C@@H]2CC[C@@H](C)CN2C(=O)C(=O)Nc2cncc(C(N)=O)c2)cn1 (single isomer, unassigned) [Compound 443] | A (an IC50 ratio greater than or equal to 10 fold) | < 1 |
| 0.05 to 0.5 | 0.05 to 0.5 | < 0.05 | > 1 | < 0.1 | COc1ncc(NC(=O)C(=O)N2C[C@H](C)CC[C@H]2c2ccc(F)cc2)cc1C(N)=O (single isomer, unassigned) [Compound 446] | A (an IC50 ratio greater than or equal to 10 fold) | 1 to 10 |
| 0.05 to 0.5 | < 0.05 | < 0.05 | > 1 | < 0.1 | CNc1ccc([C@H]2CC[C@H](C)CN2C(=O)C(=O)Nc2cnc(OC)c(C(N)=O)c2)cn1 (single isomer, unassigned) [Compound 447] | A (an IC50 ratio greater than or equal to 10 fold) | < 1 |
| > 0.5 | > 0.5 | > 0.5 | > 1 | > 1 | CNc1ccc([C@@H]2CC[C@@H](C)CN2C(=O)C(=O)Nc2cnc(OC)c(C(N)=O)c2)cn1 (single isomer, unassigned) [Compound 448] | C (an IC50 ratio of less than 3 fold) | > 10 |
| > 0.5 | > 0.5 | > 0.5 | > 1 | > 1 | COc1ncc(NC(=O)C(=O)N2C[C@H](C)CC[C@H]2c2ccc3c(c2)CC(=O)N3)cc1C(N)=O (single isomer, unassigned) [Compound 453] | C (an IC50 ratio of less than 3 fold) | > 10 |
| 0.05 to 0.5 | < 0.05 | < 0.05 | 0.1 to 1 | < 0.1 | COc1ncc(NC(=O)C(=O)N2C[C@@H](C)CC[C@@H]2c2ccc3c(c2)CC(=O)N3)cc1C(N)=O (single isomer, unassigned) [Compound 454] | A (an IC50 ratio greater than or equal to 10 fold) | < 1 |
| 0.05 to 0.5 | < 0.05 | < 0.05 | 0.1 to 1 | < 0.1 | Cc1cc(NC(=O)C(=O)N2C[C@H](C)CC[C@H]2c2ccc(F)c(F)c2)cnc1N (single isomer, unassigned) [Compound 458] | A (an IC50 ratio greater than or equal to 10 fold) | 1 to 10 |
| 0.05 to 0.5 | < 0.05 | < 0.05 | > 1 | < 0.1 | COc1ncc(NC(=O)C(=O)N2C[C@@H](C)CC[C@@H]2c2ccc(N)nc2)cc1C(N)=O (single isomer, unassigned) [Compound 460] | A (an IC50 ratio greater than or equal to 10 fold) | < 1 |
| 0.05 to 0.5 | < 0.05 | < 0.05 | 0.1 to 1 | < 0.1 | COc1ncc(NC(=O)C(=O)N2C[C@@H](C)CC[C@@H]2c2ccc3[nH]ncc3c2)cc1C(N)=O (single isomer, unassigned) [Compound 464] | A (an IC50 ratio greater than or equal to 10 fold) | < 1 |
| > 0.5 | > 0.5 | > 0.5 | > 1 | > 1 | COc1ncc(NC(=O)C(=O)N2C[C@H](C)CC[C@H]2c2ccc3[nH]ncc3c2)cc1C(N)=O (single isomer, unassigned) [Compound 465] | B (an IC50 ratio greater than or equal to 3 fold but lower than 10 fold) | > 10 |
| > 0.5 | > 0.5 | > 0.5 | > 1 | – | CNc1ccc([C@H]2CC[C@@H](C)CN2C(=O)C(=O)Nc2cnc(OC)c(C(N)=O)c2)cn1 (single isomer, unassigned) [Compound 467] | C (an IC50 ratio of less than 3 fold) | > 10 |
| > 0.5 | > 0.5 | > 0.5 | > 1 | > 1 | CNc1ccc([C@@H]2CC[C@H](C)CN2C(=O)C(=O)Nc2cnc(OC)c(C(N)=O)c2)cn1 (single isomer, unassigned) [Compound 468] | C (an IC50 ratio of less than 3 fold) | > 10 |
